Data: US8841073B2, “Methods for identifying RNA segments bound by RNA-binding proteins or ribonucleoprotein complexes” (The Rockefeller University, priority 2008, dated 2014)
{NH2} = code of the source, not defined here; [4sU] = 4-thiouridine

These substances were tested against T1, recombinant His6-QKI protein (Homo sapiens, UniProt Q96PU8) (assay: Electrophoretic mobility shift assay (gel-shift) with recombinant QKI). Details: not given.
T1 construct: His6 (N); made in house; host or cells: E. coli STAR(DE3)
T1 sequence (Q96PU8 1-319 isoform Q96PU8-9): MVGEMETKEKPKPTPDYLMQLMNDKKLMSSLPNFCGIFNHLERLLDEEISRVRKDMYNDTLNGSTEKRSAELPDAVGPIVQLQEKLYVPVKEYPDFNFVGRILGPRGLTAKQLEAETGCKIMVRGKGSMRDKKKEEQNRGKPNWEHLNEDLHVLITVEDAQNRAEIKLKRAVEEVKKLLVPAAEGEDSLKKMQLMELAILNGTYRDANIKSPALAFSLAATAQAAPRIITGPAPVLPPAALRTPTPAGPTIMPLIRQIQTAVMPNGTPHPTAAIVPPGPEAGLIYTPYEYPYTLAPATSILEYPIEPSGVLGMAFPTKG
Format: binding
Experimental: FIG. 11: Electrophoretic mobility shift assay (EMSA) to analyze binding of recombinant QKI to synthetic oligoribonucleotides with a sequence derived from a cluster identified by QKI PURE-CLIP. […] C Mutation of either one of the QKI binding sites (marked with red bars in the RNA-sequence) results in decreased affinity of QKI to the RNA. Mutation of both binding sites leads to complete loss of affinity of QKI to the RNA.
Radiolabeled RNA (1 nM) was incubated with recombinant His6-QKI protein at various concentrations and 100 ng tRNA in 20 μl of 20 mM HEPES-KOH, pH 7.4, 330 mM KCl, 10 mM MgCl2, 0.1 mM EDTA and 0.01% IGEPAL CA630 (Sigma). After addition of 6 μl loading dye (40% glycerol, bromophenol blue in binding buffer), the solution was loaded onto a native 10% acrylamide gel containing 0.5×TBE, running at 200 V for 2 h at room temperature, using 0.5×TBE as running buffer. The protein-bound RNA and the free RNA were quantified using a phosphorimager.
In the case of “U10: synthetic oligoribonucleotide with 4SU at position 3 of the QKI recognition element; GUAUGCCAU(4sU)AACAAAUUCAUUAACAA (SEQ ID NO: 31) (GUAUGCCAUUAACAAAUUCAUUAACAA; RNA, [4sU] at 10, backbone not given here)”, the “RNA-binding / affinity to recombinant QKI by gel-shift analysis” value is reported as “unaffected”.

These substances were tested on most abundant miRNAs in HEK293 cells (assay: miRNA inhibition by cocktail of 2'-O-methyl antisense oligoribonucleotides in HEK293 cells; seed match depletion/enrichment in down-/up-regulated transcripts (Affymetrix arrays)). Details: antisense cocktail vs mock.
Format: cell-based, human
Experimental: All miRNAs are assumed to have U at position 1. p-values for 4 types of seeds, indicated below, were tested.
miRNAs are predominantly localized to the cytoplasm although a smaller fraction can be detected in nuclear extracts (Hwang et al., 2007; Meister et al., 2004; Pena et al., 2009; Robb et al., 2005; Weinmann et al., 2009). Our CCRs correspond to 84% exonic, 14% intronic, and 2% not assigned transcribed regions. This distribution is consistent with the predominant cytoplasmic function of miRNAs. Of the exonic CCRs, 50% distributed to the CDS, 46% to the 3′ UTR, and 4% to the 5′ UTR of mRNAs, with a specific enrichment in the 3′UTRs relative to what is expected based on the relative lengths of different transcript regions (FIG. 6D). The identification of such a large number of miRNA binding sites within the CDS was unexpected, because miRNA are believed to predominantly act on 3′ UTRs (Bartel, 2009), with a few reports providing evidence for miRNA-binding to 5′ UTR or CDS (Forman et al., 2008; Lytle et al., 2007; Orom et al., 2008; Tay et al., 2008). In order to determine if CCR-containing transcripts were indeed subject to miRNA-dependent regulation, we inhibited 25 of the most abundant miRNAs in HEK293 cells (FIG. 5C) with a cocktail of 2′-O-methyl-modified antisense oligoribonucleotides (FIG. 7A and see FIG. 28A-C for the efficiency of the individual antisense oligoribonucleotide). The change in relative mRNA abundance before and after miRNA inhibition was recorded by Affymetrix whole transcriptome array analysis.
miRNA duplexes and 2′-O-methyl oligoribonucletide transfections of HEK293 TREx Flp-In cells were carried out using Lipofectamine RNAiMAX (Invitrogen). Total RNA was isolated by TRIZOL RNA extraction. The RNA was further purified and Human Genome U133 Plus 2.0 Array (Affymetrix) analyses were performed as described previously (Landthaler et al., 2008).
CEL files of mRNA profiles from miRNA/2′O-methyl oligonucleotide and mocktransfected cell were loaded into the R software using the BioConductor affy package (Gentleman et al., 2004). The transcript probe set intensities were background-corrected, adjusted for non-specific binding and quantile normalized with the GCRMA algorithm (Wu, 2006). Probe sets with more than 6 of the 11 probes mapping ambiguously to the genome were discarded, as were probe sets that mapped to multiple genes. We then collected all probe sets matching a given gene, and we computed the logarithm of gene-level expression as the average of the log-intensity of probe sets mapping to that gene. For sequence analyses we also selected a representative transcript for each gene. This was the Genbank transcript with median 3′ UTR length corresponding to that gene. In total this procedure gave us expression measurements for 16,063 genes (and representative transcripts). The difference between the log-expression levels of a gene in samples treated with a cocktail of 2′-O-methyl oligoribonucleotides and mock transfected cells was taken as a measure of transcript stabilization upon miRNA inhibition.
For “miR-103: 2'-O-methyl antisense oligoribonucleotide UCAUAGCCCUGUACAAUGCUGCU (SEQ ID NO: 61) (all 2'-O-methyl, backbone not given here)”, the “efficiency of the individual antisense oligoribonucleotide (inhibition of cognate miRNA)” value (shortened to “efficiency … (inhibition of cognate miRNA)”) was “Worked”.
“miR-101: 2'-O-methyl antisense oligoribonucleotide UUCAGUUAUCACAGUACUGUA (SEQ ID NO: 60) (all 2'-O-methyl, backbone not given here)” was tested, and the “efficiency … (inhibition of cognate miRNA)” value was “Marginal”.
“miR-19a: 2'-O-methyl antisense oligoribonucleotide UCAGUUUUGCAUAGAUUUGCACA (SEQ ID NO: 49) (all 2'-O-methyl, backbone not given here)” was tested, and the “efficiency … (inhibition of cognate miRNA)” value was “Worked”.
With “miR-30a: 2'-O-methyl antisense oligoribonucleotide CUUCCAGUCGAGGAUGUUUACA-NH2 (SEQ ID NO: 56) (all 2'-O-methyl, 3' {NH2}, backbone not given here)” the “efficiency … (inhibition of cognate miRNA)” value was “Worked”.
For “miR-10a: 2'-O-methyl antisense oligoribonucleotide CACAAAUUCGGAUCUACAGGGUA-NH2 (SEQ ID NO: 43) (all 2'-O-methyl, 3' {NH2}, backbone not given here)”, the “efficiency … (inhibition of cognate miRNA)” value was “did not seem to have inhibited their cognate miRNAs”.
For “let-7a: 2'-O-methyl antisense oligoribonucleotide AACUAUACAACCUACUACCUCA-NH2 (SEQ ID NO: 42) (all 2'-O-methyl, 3' {NH2}, backbone not given here)”, the “efficiency … (inhibition of cognate miRNA)” value was “Marginal”.
“miR-378: 2'-O-methyl antisense oligoribonucleotide CCUUCUGACUCCAAGUCCAGU (SEQ ID NO: 65) (all 2'-O-methyl, backbone not given here)” was tested, and the “efficiency … (inhibition of cognate miRNA)” value was “Marginal”.
In the case of “miR-18a: 2'-O-methyl antisense oligoribonucleotide CUAUCUGCACUAGAUGCACCUUA-NH2 (SEQ ID NO: 48) (all 2'-O-methyl, 3' {NH2}, backbone not given here)”, the “efficiency … (inhibition of cognate miRNA)” value is reported as “Worked”.
“miR-27a: 2'-O-methyl antisense oligoribonucleotide AACUAUACAAUCUACUACCUCA (SEQ ID NO: 55) (all 2'-O-methyl, backbone not given here)” was tested, and the “efficiency … (inhibition of cognate miRNA)” value was “did not seem to have inhibited their cognate miRNAs”.
In the case of “miR-15a: 2'-O-methyl antisense oligoribonucleotide CGCCAAUAUUUACGUGCUGCUA (SEQ ID NO: 44) (all 2'-O-methyl, backbone not given here)”, the “efficiency … (inhibition of cognate miRNA)” value is reported as “Worked”.
“miR-21: 2'-O-methyl antisense oligoribonucleotide UCAACAUCAGUCUGAUAAGCUA (SEQ ID NO: 53) (all 2'-O-methyl, backbone not given here)” was tested, and the “efficiency … (inhibition of cognate miRNA)” value was “Marginal”.
In the case of “miR-186: 2'-O-methyl antisense oligoribonucleotide AGCCCAAAAGGAGAAUUCUUUG (SEQ ID NO: 63) (all 2'-O-methyl, backbone not given here)”, the “efficiency … (inhibition of cognate miRNA)” value is reported as “Didn't Work Well”.
In the case of “miR-92a: 2'-O-methyl antisense oligoribonucleotide ACAGGCCGGGACAAGUGCAAUA (SEQ ID NO: 58) (all 2'-O-methyl, backbone not given here)”, the “efficiency … (inhibition of cognate miRNA)” value is reported as “Worked”.
For “miR-17: 2'-O-methyl antisense oligoribonucleotide CUACCUGCACUGUAAGCACUUUG (SEQ ID NO: 47) (all 2'-O-methyl, backbone not given here)”, the “efficiency … (inhibition of cognate miRNA)” value was “Worked”.
With “miR-301b: 2'-O-methyl antisense oligoribonucleotide GCUUUGACAAUACUAUUGCACUG (SEQ ID NO: 64) (all 2'-O-methyl, backbone not given here)” the “efficiency … (inhibition of cognate miRNA)” value was “Worked”.

Same assay, conditions: antisense cocktail vs mock, listed as MiR-10a
For “miR-10a: 2'-O-methyl antisense oligoribonucleotide CACAAAUUCGGAUCUACAGGGUA-NH2 (SEQ ID NO: 43) (all 2'-O-methyl, 3' {NH2}, backbone not given here)”, the “efficiency … (inhibition of cognate miRNA)” value was “Didn't Work”.

Same assay, conditions: antisense cocktail vs mock, listed as MiR-27a
In the case of “miR-27a: 2'-O-methyl antisense oligoribonucleotide AACUAUACAAUCUACUACCUCA (SEQ ID NO: 55) (all 2'-O-methyl, backbone not given here)”, the “efficiency … (inhibition of cognate miRNA)” value is reported as “Didn't Work”.
